Source: US11912723B2, “KRAS modulators and uses thereof” (Quanta Therapeutics, Inc., priority 2022, dated 2024)
pIC50: −log10 of the molar value.

Each molecule was assayed against T1, KRAS G12V/RAF1 (Homo sapiens, UniProt P01116, G12V) (assay: Protein-protein interaction (PPI) HTRF assay KRAS G12V/RAF1). Details: KRASG12V/RAF1.
T1 construct: KRAS (1-169) proteins were expressed in E. coli at 18° C; His6-MBP (N, cleaved yes); made in house; host or cells: E. coli
T1 sequence (P01116 1-169 isoform P01116-2 G12V): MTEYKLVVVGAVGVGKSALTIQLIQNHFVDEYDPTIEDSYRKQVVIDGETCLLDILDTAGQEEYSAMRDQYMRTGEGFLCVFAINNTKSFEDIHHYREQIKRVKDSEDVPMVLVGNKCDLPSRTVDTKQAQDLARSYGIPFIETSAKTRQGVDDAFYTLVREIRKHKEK
Assay type: binding
Protocol: Biotinylated KRAS wt and KRAS G12DNV proteins were expressed and purified in conditions similar to those previously reported (Tran, et al., 2021) (Zhang, et al., 2020). Briefly, KRAS (1-169) proteins were expressed in E. coli at 18° C. with an upstream TEV cleavage site (ENLFYQS) followed an Avi tag sequence ([…]). KIRAS expression constructs contained both a His6 and maltose-binding protein (MBP) tags at the N-terminus for Ni-NTA column purification prior to overnight TEV cleavage and MBP column purification. The avi-tagged NRAS expression construct contained both a His6 tag and SUMO cleavage sige at the N-terminus for Ni-NTA column purification followed by His-ULP1 digestion overnight. All avi-tagged RAS proteins were dialyzed into buffer containing ATP, biotin, and BirA followed by purification over a second Ni-NTA column and then run over a size exclusion HiLoad™ 26/600 Superdex™ column in 20 mM HEPES, pH 7.5, 300 mM NaCl, 5 mM MgCl2, and 1 mM TCEP. Fractions containing the protein of interest were pooled, concentrated, and confirmed by intact mass spectrometry. To prepare ‘GTP’ loaded KRAS and NRAS, biotinylated KRAS or NRAS was nucleotide exchanged from GDP-bound protein to GppNHp-bound (Jena Biosciences, NU-401-50) protein in the presence of alkaline phosphatase and excess GppNHp as previously described and the resulting nucleotide content was confirmed by HPLC reverse phase analytical chromatography (Donohue, et al., 2019) (Tran, et al., 2021).
His-tagged RAF1 (52-131) was similarly expressed in E. coli at 18° C. overnight with an upstream TEV cleavage site. His-tagged RAF1 expression construct contained both a His6 and MBP tags at the N-terminus for Ni-NTA column purification followed by MBP-tagged TEV digestion overnight. RAF1 protein samples were further purified over a MBP column followed by a Ni-NTA column and a second MBP column. The fractions containing the protein of interest were pooled, concentrated, and further purified over a HiLoad™ 16/600 Superdex™ 75 pg size exclusion column into 20 mM HEPES, pH8.0, 200 mM NaCl, 5 mM TCEP.
When RAS proteins are in the active GTP-bound conformation, they bind the effector protein RAF1 at the N-terminus Ras-binding domain (RBD, residues 52-131) (Tran, et al., 2021). Homogenous time resolved fluorescence (HTRF) was used to monitor the interaction between wt or mutant KRAS and RAF1 or wt NRAS and RAFT. Compounds were assayed in the presence of KRAS G12D/V and RAF1 versus wt KRAS to assess activity against mutant and w.t. KRAS. Similarly, compounds were then assayed in the presence of w.t. NRAS and RAF1 to assess RAS isoform selectivity. In all assay formats, His-tagged RAF1 protein was incubated with the HTRF donor, anti-6His Tb Cryptate gold (Cisbio 61DB10RDF), and biotinylated RAS proteins were incubated with the HTRF acceptor, streptavidin-d2 (CisBio 610SADLA). The intensity of the fluorescence signal emitted is proportional to binding between the two proteins. The donor solution was prepared by mixing 16 nM His-tagged RAF1 in protein dilution buffer with 1:100 anti-6His Tb cryptate in PPI-Terbium detection buffer. 16 nM biotinylated RAS protein was diluted into protein dilution buffer (50 mM Tris-HCl pH 7.5, 150 mM NaCl, 0.1 mM MgCl2, 1 mM TCEP, 0.005% Tween20) and mixed with 1:2000 Streptavidin-d2 diluted in PPI-Terbium detection buffer (CisBio 61DB10RDF). 50× compound in DMSO was mixed with 16 nM KRAS-acceptor solution and incubated for 30 minutes at room temperature. After compound pre-incubation with KRAS, the RAF1 donor solution was added to the KRAS-acceptor solution and incubated for 1 hour at room temperature. The fluorescence signal emitted was monitored at 665 nm and 615 nm using an Envision multimode plate reader. The HTRF ratio (665/615) was calculated and normalized to 0% inhibition in the absence of compound and 100% inhibition in the presence of untagged RAF1 protein. […]
Work on CN(C)C(=O)c1nn2c(c1Cl)CN(c1nc(OC[C@@]34CCCN3C[C@H](F)C4)nc3c1CN(C)[C@@]1(CCc4ccccc41)C3)CCC2 [Compound 53, 3-chloro-5-[(7S)-2-[[(2R,8S)-2-fluoro-1,2,3,5,6,7-hexahydropyrrolizin-8-yl]methoxy]-6-methyl-spiro[5,8-dihydropyrido[4,3-d]pyrimidine-7,1′-indane]-4-yl]-N,N-dimethyl-4,6,7,8-tetrahydropyrazolo[1,5-a][1,4]diazepine-2-carboxamide] yielded a pIC50 of 4.00 to 5.00.
Work on CN(C)C(=O)c1nn2c(c1Cl)CN(c1nc(OC[C@@]34CCCN3C[C@H](F)C4)nc3c1CN(C)[C@@]1(CCCc4ccccc41)C3)CCC2 [Compound 64, 3-chloro-5-[(7S)-2-[[(2R,8S)-2-fluoro-1,2,3,5,6,7-hexahydropyrrolizin-8-yl]methoxy]-6-methyl-spiro[5,8-dihydropyrido[4,3-d]pyrimidine-7,1′-tetralin]-4-yl]-N,N-dimethyl-4,6,7,8-tetrahydropyrazolo[1,5-a][1,4]diazepine-2-carboxamide] yielded a pIC50 of 4.00 to 5.00.
Molecule C#Cc1c(C(=O)N(C)C)nn2c1CN(c1nc(OC[C@@]34CCCN3C[C@H](F)C4)nc3c1CN(C)[C@@]1(CCCc4ccccc41)C3)CCC2 [Compound 81, 3-ethynyl-5-[(7S)-2-[[(2R,8S)-2-fluoro-1,2,3,5,6,7-hexahydropyrrolizin-8-yl]methoxy]-6-methyl-spiro[5,8-dihydropyrido[4,3-d]pyrimidine-7,1′-tetralin]-4-yl]-N,N-dimethyl-4,6,7,8-tetrahydropyrazolo[1,5-a][1,4]diazepine-2-carboxamide] has a pIC50 of 4.00 to 5.00.
Cc1nnc(-c2nn3c(c2Cl)CN(c2nc(OC[C@@]45CCCN4C[C@H](F)C5)nc4c2CN(C)[C@@]2(CCCc5ccccc52)C4)CCC3)n1C [Compound 90, (7S)-4-[3-chloro-2-(4,5-dimethyl-1,2,4-triazol-3-yl)-4,6,7,8-tetrahydropyrazolo[1,5-a][1,4]diazepin-5-yl]-2-[[(2R,8S)-2-fluoro-1,2,3,5,6,7-hexahydropyrrolizin-8-yl]methoxy]-6-methyl-spiro[5,8-dihydropyrido[4,3-d]pyrimidine-7,1′-tetralin]] was tested, and the pIC50 was 4.00 to 5.00.
With CN(C)C(=O)c1nn2c(c1Cl)CN(c1nc(OC[C@@]34CCCN3C[C@H](F)C4)nc3c1CN(C)[C@@]1(CCc4cccc(O)c41)C3)CCC2 [Compound 96, 3-chloro-5-[(7S)-2-[[(2R,8S)-2-fluoro-1,2,3,5,6,7-hexahydropyrrolizin-8-yl]methoxy]-7′-hydroxy-6-methyl-spiro[5,8-dihydropyrido[4,3-d]pyrimidine-7,1′-indane]-4-yl]-N,N-dimethyl-4,6,7,8-tetrahydropyrazolo[1,5-a][1,4]diazepine-2-carboxamide] the pIC50 was 4.00 to 5.00.
